# Like-named read-outs stand apart in the source and are kept apart here.
# Assays:
# Assay type in all cases: cell-based
# HIV = assay: Inhibition of the HIV-induced cytopathic effect in MT-4 cells (MTT assay); settings: for EC50: Human immunodeficiency virus 1, MT4, dose achieving 50% protection of HIV-infected MT-4 cells, read-out: ED₅₀ (50% effective dose); for EC50 / ED₅₀ (50% effective dose): MTT, 540 nm; for ED₅₀ (50% effective dose): dose achieving 50% protection of HIV-infected MT-4 cells
# Experimental: (§1) A rapid, sensitive and automated assay procedure was used for the in-vitro evaluation of anti-HIV agents. An […] T4-cell line, MT-4, which was previously shown (Koyanagi et al., Int. J. Cancer, 36, 445-451, 1985) to be highly susceptible to and permissive for HIV infection, served as the target cell line. Inhibition of the HIV-induced cytopathic effect was used as the end point. The viability of both HIV- and mock-infected cells was assessed spectrophotometrically via the in-situ reduction of 3-(4,5-dimethylthiazol-2-yl)-2,5-diphenyltetrazolium bromide (MTT). The 50% cytotoxic dose (CD₅₀ in µg/ml) was defined as the concentration of compound that reduced the absorbance of the mock-infected control sample by 50%. The percent protection achieved by the compound in HIV-infected cells was calculated by the following formula: [formula] whereby (ODT)HIV is the optical density measured with a given concentration of the test compound in HIV-infected cells; (ODC)HIV is the optical density measured for the control untreated HIV-infected cells; (ODC)MOCK is the optical density measured for the control untreated mock-infected cells; all optical density values were determined at 540 nm. The dose achieving 50% protection according to the above formula was defined as the 50% effective dose (ED₅₀ in µg/ml). The ratio of CD₅₀ to ED₅₀ was defined as the selectivity index (SI).
# in vitro = settings: human, mt-4 cells, CD₅₀ (50% cytotoxic dose)
# Experimental: as §1
# mock-infected MT-4 cells = assay: in vitro; settings: human
# Experimental: as §1
Compound,EC50 (HIV) [µg/mL],SI (selectivity index) (HIV; ratio of CD₅₀ to ED₅₀),CC50 (in vitro) [µg/mL],SI (selectivity index) (HIV),ED₅₀ (50% effective dose) (HIV) [µg/mL],CD₅₀ (50% cytotoxic dose) (mock-infected MT-4 cells) [µg/mL]
"CC(C)=CCN1Cc2cccc3[nH]c(=S)n(c23)CC1C (racemic) [compound 4, (±)-4,5,6,7-tetrahydro-5-methyl-6-(3-methyl-2-butenyl)imidazo[4,5,1-jk][1,4]benzodiazepine-2(1H)-thione]",0.013,1923,25,–,–,–
"CCCN1Cc2cccc3[nH]c(=S)n(c23)CC1C (stereo not drawn) [compound 1, 4,5,6,7-tetrahydro-5-methyl-6-propylimidazo-[4.5.1-jk][1,4]benzodiazepine-2(1H)-thione]",0.155,948,147,–,–,–
"CC(C)=CCN1Cc2cc(Cl)cc3[nH]c(=S)n(c23)C[C@@H]1C [compound 3, (+)-(S)-9-chloro-4,5,6,7-tetrahydro-5-methyl-6-(3-methyl-2-butenyl)imidazo[4,5,1-jk][1,4]benzodiazepine-2(1H)-thione]",–,–,–,20400,0.0005,10
"CC(C)=CCN1Cc2cccc3[nH]c(=S)n(c23)C[C@@H]1C [compound 5, (+)-(S)-4,5,6,7-tetrahydro-5-methyl-6-(3-methyl-2-butenyl)imidazo[4,5,1-jk] [1,4]benzodiazepine-2(1H)-thione]",0.008,40625,325,–,–,–
CC(C)=CCN1Cc2cccc3[nH]c(=S)n(c23)C[C@H]1C [compound 6],0.045,≧5555,≥ 250,–,–,–
CC(C)=CCN1Cc2cc(Cl)cc3[nH]c(=S)n(c23)C[C@@H]1C [compound 7],–,–,–,12778,0.0018,23
C=C(C)CN1Cc2cccc3[nH]c(=S)n(c23)C[C@@H]1C [compound 8],0.0126,365,4.6,–,–,–
C[C@H]1Cn2c(=S)[nH]c3cccc(c32)CN1CC1CC1 [compound 9],0.0166,>15029,> 250,–,–,–

# From patent EP0384522A1, “Antiviral tetrahydroimidazo[1,4]benzodiazepin-2-thiones” (priority 1989, dated 1990)
